Measured values reported in US20080255206A1, “Rxr Agonists and Antagonists, Alone or in Combination with Ppar Ligands, in the Treatment of Metabolic and Cardiovascular Diseases” (priority 2005, published 2008).

Tested on: rats
Assay: 4-weeks toxicology study in rats, oral gavage
Assay type: in vivo
Excerpt: […]. […] This symptom of hair loss is observed, dose-dependently, with all doses. Clinical pathology is limited to minor disturbances.

CCCCOc1c(\C(C)=C/C=C/C(C)=C/C(=O)O)cc(C(C)(C)C)cc1C(C)(C)C [Compound 15, (2E,4E,6Z)-7-[2-butoxy-3,5-bis(1,1-dimethylethyl)phenyl]-3-methyl-2,4,6-octatrienoic acid]
Haematology and clinical chemistry (4 weeks oral gavage): No abnormalities in haematology, no abnormalities in clinical chemistry | Histopathology (4 weeks oral gavage): only some changes in the 500/750 mg/kg dose group | Transaminases, triglycerides and cholesterol (4 weeks oral gavage): No increase in transaminases, triglycerides, and cholesterol | Tolerability, oral (daily doses of 50, 250, 500, eventually 750 mg/kg, 4 weeks): well tolerated with the exception of patchy alopecia
